# Measurements published in publication PMC7671950 (Cellular and molecular neurobiology, 2020).
# Like-named read-outs stand apart in the source and are kept apart here.
# Tests used:
# mMOR-1 [1] = biological target: T1, mMOR-1 (Mus musculus, UniProt P42866); test: [35S]GTPγS functional assay; assay type: biochemical; conditions: for functional character at MOR-1: [35S]GTPγS functional assays; for Emax: read-out: mMOR-1 Emax; for mMOR-1 Emax: percent maximal stimulation relative to DAMGO at 1000 nM
# T1 sequence (P42866 whole entry): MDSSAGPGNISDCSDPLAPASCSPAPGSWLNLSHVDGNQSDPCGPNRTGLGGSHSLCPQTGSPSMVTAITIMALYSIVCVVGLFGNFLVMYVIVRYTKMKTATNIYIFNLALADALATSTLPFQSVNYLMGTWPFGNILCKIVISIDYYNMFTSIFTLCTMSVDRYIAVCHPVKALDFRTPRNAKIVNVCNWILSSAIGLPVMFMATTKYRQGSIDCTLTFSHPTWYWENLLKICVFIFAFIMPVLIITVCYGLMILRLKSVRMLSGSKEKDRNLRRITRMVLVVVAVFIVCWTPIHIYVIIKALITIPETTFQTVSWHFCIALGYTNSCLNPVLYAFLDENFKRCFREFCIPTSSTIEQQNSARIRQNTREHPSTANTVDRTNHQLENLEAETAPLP
# 6TM/E11 [2] = biological target: T2, 6TM/E11 (Mus musculus, UniProt P42866)
# T2 sequence (P42866 95-386 limits assumed): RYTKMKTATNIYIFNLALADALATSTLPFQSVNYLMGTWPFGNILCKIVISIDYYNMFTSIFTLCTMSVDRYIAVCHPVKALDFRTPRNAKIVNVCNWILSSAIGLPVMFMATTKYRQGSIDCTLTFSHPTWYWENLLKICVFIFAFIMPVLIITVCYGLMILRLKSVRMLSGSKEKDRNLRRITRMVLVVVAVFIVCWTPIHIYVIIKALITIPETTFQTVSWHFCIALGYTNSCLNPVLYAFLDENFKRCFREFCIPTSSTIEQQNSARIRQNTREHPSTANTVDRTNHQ
# mMOR-1 [3] = biological target: T1, mMOR-1; conditions: read-out: Ki mMOR-1; values from literature; ref Majumdar et al. 2012; cited from earlier work
# mDOR-1 = mDOR-1 (Mus musculus, UniProt P32300); conditions: read-out: Ki mDOR-1; values from literature; ref Majumdar et al. 2012; cited from earlier work
# mDOR-1, sequence (P32300 whole entry): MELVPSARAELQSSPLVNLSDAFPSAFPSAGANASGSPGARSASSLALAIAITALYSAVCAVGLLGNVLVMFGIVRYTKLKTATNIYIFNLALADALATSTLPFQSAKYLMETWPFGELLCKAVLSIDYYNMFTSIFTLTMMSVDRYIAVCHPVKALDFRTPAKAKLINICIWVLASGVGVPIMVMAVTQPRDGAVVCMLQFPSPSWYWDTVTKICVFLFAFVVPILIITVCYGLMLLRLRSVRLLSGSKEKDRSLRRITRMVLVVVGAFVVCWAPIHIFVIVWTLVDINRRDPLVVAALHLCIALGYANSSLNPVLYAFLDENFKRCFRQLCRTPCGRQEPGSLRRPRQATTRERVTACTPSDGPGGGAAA
# mKOR-1 = mKOR-1 (Mus musculus, UniProt P33534); conditions: read-out: Ki mKOR-1; values from literature; ref Majumdar et al. 2012; cited from earlier work
# mKOR-1, sequence (P33534 whole entry): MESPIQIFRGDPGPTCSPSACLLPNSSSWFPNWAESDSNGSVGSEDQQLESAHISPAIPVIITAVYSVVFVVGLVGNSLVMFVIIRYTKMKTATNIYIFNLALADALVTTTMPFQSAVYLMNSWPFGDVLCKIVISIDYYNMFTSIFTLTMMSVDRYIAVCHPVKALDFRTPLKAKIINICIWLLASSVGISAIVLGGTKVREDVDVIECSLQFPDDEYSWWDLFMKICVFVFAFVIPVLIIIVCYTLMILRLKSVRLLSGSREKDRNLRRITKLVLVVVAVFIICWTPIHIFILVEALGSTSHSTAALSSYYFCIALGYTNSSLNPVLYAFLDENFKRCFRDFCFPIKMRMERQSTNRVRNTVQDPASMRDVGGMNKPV
# 6TM/E11 [4] = biological target: T2, 6TM/E11; conditions: read-out: Ki 6TM/E11; values from literature; ref Majumdar et al. 2012; cited from earlier work
# [5] = biological target: triple knockout mouse brain (Mus musculus, UniProt P42866); conditions: read-out: Ki Triple KO; values from literature; ref Majumdar et al. 2012; cited from earlier work
# triple knockout mouse brain, sequence (P42866 96-398): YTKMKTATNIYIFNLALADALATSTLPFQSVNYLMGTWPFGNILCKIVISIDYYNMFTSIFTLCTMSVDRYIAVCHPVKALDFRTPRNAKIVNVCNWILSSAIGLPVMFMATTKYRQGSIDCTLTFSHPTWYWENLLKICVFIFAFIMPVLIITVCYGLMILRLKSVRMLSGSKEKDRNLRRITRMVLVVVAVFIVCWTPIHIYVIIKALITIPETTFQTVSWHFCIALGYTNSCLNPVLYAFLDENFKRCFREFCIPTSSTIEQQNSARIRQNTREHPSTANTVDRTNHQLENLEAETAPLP
# [6] = read-out: mMOR-1 EC50, [35S]GTPγS binding, mean ± SEM, 3 replications
SMILES,EC50 (mMOR-1 [1]) [nM],functional character at MOR-1 (mMOR-1 [1]),Emax (mMOR-1 [1]) [%],Ki (6TM/E11 [2]) [nM],mMOR-1 Emax (mMOR-1 [1]; mean ± SEM) [%],EC50 (mMOR-1 [1]; [6]) [nM],Ki (mMOR-1 [3]) [nM],Ki (mDOR-1) [nM],Ki (mKOR-1) [nM],Ki (6TM/E11 [4]) [nM],Ki [5] [nM]
"C#CCN1CC[C@]23c4c5ccc(O)c4O[C@H]2[C@H](NC(=O)c2ccc(N=[N+]=[N-])c(I)c2)CC[C@@]3(O)[C@H]1C5 [Alkynyl-IBzA 17, 4-Azido-N-((4R,4aS,7R,7aR,12bS)-4a,9-dihydroxy-3-(prop-2-yn-1-yl)-2,3,4,4a,5,6,7,7a-octahydro-1H-4,12-methanobenzofuro[3,2-e]isoquinolin-7-yl)-3-iodobenzamide]",1.1 ± 0.1,full agonists,103 ± 3,12 ± 1.63,–,–,–,–,–,–,–
C=CCN1CC[C@]23c4c5ccc(O)c4O[C@H]2[C@H](NC(=O)c2cccc(I)c2)CC[C@@]3(O)[C@H]1C5 [IBNalA],–,–,–,–,75 ± 3.5,1.4 ± 0.3,0.22 ± 0.12,2.55 ± 0.18,0.08 ± 0.06,0.25 ± 0.12,–
"O=C(N[C@@H]1CC[C@@]2(O)[C@H]3Cc4ccc(O)c5c4[C@@]2(CCN3CC2CC2)[C@H]1O5)c1cccc(I)c1 [IBNtxA, 3’-iodobenzoylnaltrexamide]",–,–,–,–,101 ± 3,0.49 ± 0.12,0.11 ± 0.02,0.24 ± 0.1,0.03 ± 0.001,0.16 ± 0.04,0.12 ± 0.04
"C=CCN1CC[C@]23c4c5ccc(O)c4O[C@H]2[C@H](NC(=O)c2ccc(N=[N+]=[N-])c(I)c2)CC[C@@]3(O)[C@H]1C5 [IBzA 10, N-((4R,4aS,7R,7aR,12bS)-3-Allyl-4a,9-dihydroxy-2,3,4,4a,5,6,7,7a-octahydro-1H-4,12-methanobenzofuro[3,2-e]isoquinolin-7-yl)-4-azido-3-iodobenzamide]",0.86 ± 0.24,full agonists,122 ± 3,4.64 ± 0.2,–,–,–,–,–,–,–
